Laboratory results as given in patent publication US5620997A, “Isothiazolones” (Warner-Lambert Company, priority 1995, dated 1997).
pEC50: −log10 of the molar value.

What was measured:
[1] = target: T1, rabbit reticulocyte 15-LO (Oryctolagus cuniculus, UniProt P12530); test: Colorimetric Assay of 15-LO Inhibition; assay type: biochemical; conditions: colorimetric method
T1 construct: rabbit reticulocyte 15-LO; from tissue; host or cells: rabbit reticulocytes
T1 sequence (P12530 1-663): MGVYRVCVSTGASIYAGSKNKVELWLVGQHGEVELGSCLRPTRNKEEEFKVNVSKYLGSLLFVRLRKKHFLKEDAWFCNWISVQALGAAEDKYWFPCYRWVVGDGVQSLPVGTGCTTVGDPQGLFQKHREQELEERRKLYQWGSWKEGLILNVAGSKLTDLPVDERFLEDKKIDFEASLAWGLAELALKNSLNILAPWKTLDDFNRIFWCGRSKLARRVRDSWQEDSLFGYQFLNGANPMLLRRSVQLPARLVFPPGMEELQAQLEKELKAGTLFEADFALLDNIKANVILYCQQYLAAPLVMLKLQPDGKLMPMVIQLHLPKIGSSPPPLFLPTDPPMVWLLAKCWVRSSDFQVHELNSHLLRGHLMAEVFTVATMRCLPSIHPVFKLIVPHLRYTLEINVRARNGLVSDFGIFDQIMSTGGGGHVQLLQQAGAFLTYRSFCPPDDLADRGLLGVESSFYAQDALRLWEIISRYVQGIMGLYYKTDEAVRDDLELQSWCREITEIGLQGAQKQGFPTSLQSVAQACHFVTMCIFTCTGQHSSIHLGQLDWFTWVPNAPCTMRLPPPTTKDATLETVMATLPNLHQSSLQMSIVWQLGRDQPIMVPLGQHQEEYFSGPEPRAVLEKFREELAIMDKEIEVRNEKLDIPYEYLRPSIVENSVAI
Protocol: The isothiazolones of Formula I are also effective for treating inflammation and atherosclerosis. A characteristic feature of atherosclerosis is the accumulation of cholesteryl ester engorged from foam cells. Foam cells are derived from circulating monocytes which invade artery walls in response to hypercholesterolemia, and mature into tissue macrophages. […] Specifically, representative compounds were evaluated by the methods described by Auerbach, et al., Analytical Biochemistry, 1992;201:375-380. Two in vitro assays were utilized, both utilizing rabbit reticulocyte 15-LO, and linoleic acid as substrate, to enzymatically produce a peroxide oxidation product known as 13(S)-HPODE. N-Benzoyl leucomethylene blue was utilized as a colorimetric reagent for detection and quantification of the peroxide formation. Also, HPLC was utilized to quantify the oxidation following incubation at 4° C. for 10 minutes.
Table 3 gives the concentration of compound required to inhibit 50% of the activity of 15-LO (IC50) when measured by the HPLC method of Auerbach, et al. Table 4 gives the percent inhibition of 15-LO activity when evaluated by the colorimetric method.

[2] = test system: HIV; test: CEM cell assay, anti-HIV activity (XTT, protection from viral cytopathic effects); assay type: cell-based; conditions: Human immunodeficiency virus 1, CCRF-CEM; Effective concentration which protects cells from viral cytopathic effects
Excerpt: The test systems utilized to establish the cellular antiviral activity of the isothiazolones of Formula I are well recognized in the art and are routinely employed for such purpose. For example, the assay utilized to evaluate the compounds activity against the HIV virus is that employed by the U.S. National Cancer Institute as described by Weislow O. S., et al., J. Natl. Cancer Inst., 1989;81:577-586, incorporated herein by reference.
The procedure is designed to detect agents acting at any stage of the virus reproductive cycle. The assay basically involves the killing of T4 lymphocytes by HIV. Small amounts of HIV are added to cells, and at least two complete cycles of virus reproduction are necessary to obtain the required cell killing. Agents which interact with virions, cells, or virus gene-products to interfere with viral activities will protect cells from cytolysis. The system is automated in several features to accommodate large numbers of candidate agents, and is generally designed to detect anti-HIV activity. However, compounds which degenerate or are rapidly metabolized in the culture conditions may not show activity in this screen.
Yet another test system employed to determine antiviral activity is called the CEM cell assay.
T4 lymphocytes (CEM cell line) are exposed to HIV at a virus to cell ratio approximately 0.05, and plated along with noninfected control cells in 96-well microliter plates.
Candidate agent is dissolved in dimethyl sulfoxide (unless otherwise noted), then diluted 1:200 in cell culture medium. Further dilutions (half-log10) are prepared before adding to an equal volume of medium containing either infected or noninfected cells.
Cultures are incubated at 37° in a 5% carbon dioxide atmosphere for 6 or 7 days. The tetrazolium salt, XTT, is added to all wells, and cultures are incubated to allow formazan color development by viable cells J. National Cancer Institute, 1989;81:577-586. Individual wells are analyzed spectrophotometrically to quantitate formazan production, and in addition are viewed microscopically for detection of viable cells confirmation of protective activity.
Drug-tested virus-infected cells are compared with drug-treated noninfected cells and with other appropriate controls (untreated infected and untreated noninfected cells, drug-contain wells without cells, etc.) on the same plate. Data are reviewed in comparison with other tests done at the same time and a determination about activity is made.

In the case of `NS(=O)(=O)c1ccc(-n2sc3ccccc3c2=O)cc1` [Example 1, 4-(3-Oxo-3h-benzo[d]isothiazol-2-yl)-benzenesulfonamide], the inhibition at 10 µM [1] was 35% and the pEC50 [2] was 5.29.
